14 compounds from patent publication US5130483A, “Isoprenoid derivatives and pharmaceutical preparations containing the same” (Terumo Kabushiki Kaisha, priority 1987, dated 1992) can be followed below.

Experiment [1] concerns the target T1, 5-lipoxygenase (Rattus norvegicus, UniProt P12527).
T1 construct: The supernatant is employed as an enzyme solution of a 5-lipoxygenase; endogenous in cells; host or cells: RBL-1 rat basophilic leukemia cells, sonicated, 15,000 rpm supernatant (crude, not purified)
T1 sequence (P12527 1-673): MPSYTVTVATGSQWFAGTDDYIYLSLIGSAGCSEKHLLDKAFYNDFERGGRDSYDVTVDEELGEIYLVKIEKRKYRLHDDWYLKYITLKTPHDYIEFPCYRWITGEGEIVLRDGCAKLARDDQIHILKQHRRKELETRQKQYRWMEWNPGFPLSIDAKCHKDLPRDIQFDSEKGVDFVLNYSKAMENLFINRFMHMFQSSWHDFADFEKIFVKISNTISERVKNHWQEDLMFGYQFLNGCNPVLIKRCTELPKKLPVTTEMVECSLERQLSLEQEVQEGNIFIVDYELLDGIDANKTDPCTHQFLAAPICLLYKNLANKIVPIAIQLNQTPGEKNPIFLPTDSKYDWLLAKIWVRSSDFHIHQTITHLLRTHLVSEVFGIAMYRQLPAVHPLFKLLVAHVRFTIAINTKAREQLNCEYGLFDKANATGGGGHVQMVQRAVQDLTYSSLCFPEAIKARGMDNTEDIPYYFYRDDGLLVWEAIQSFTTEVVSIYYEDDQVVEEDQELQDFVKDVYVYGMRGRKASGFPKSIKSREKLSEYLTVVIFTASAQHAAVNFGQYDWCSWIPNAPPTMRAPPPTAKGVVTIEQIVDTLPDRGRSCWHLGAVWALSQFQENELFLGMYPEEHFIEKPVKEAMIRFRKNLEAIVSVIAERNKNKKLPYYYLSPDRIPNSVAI
Description: 5-Lipoxygenase-inhibiting activity (Test Example 1, HPLC of 5-HETE). The conditions noted are these: RBL-1 cell supernatant; 50 μg arachidonic acid; pH 7.4; 37° C., 15 min; HPLC peak of 5-HETE; read-out: 50% Inhibitory concentration. The class given is biochemical. On the procedure:
A suspension of rat-origin basophilic leukemia cell strain RBL-1 in an Eagle basal medium (manufactured by Gibco Laboratories) containing 10% FCS is cultivated in an 5% CO2 incubator at 37° C. The culture is then centrifuged at 4° C. to collect cells. The cells are re-suspended in a phosphate buffer solution at pH 7.4 to a cell density of 1.0-3.0×10^7 cells/ml. The suspended cells are treated by an ultrasonic cell blender and then centrifuged at 15,000 rpm at 4° C. for 30 min. The supernatant is employed as an enzyme solution of a 5-lipoxygenase. In test tubes are placed 50 μg of arachdonic acid and an isoprenoid derivative of the invention to be tested. To each of the test tubes are added 0.30 ml of phosphate buffer, 0.20 ml of the enzyme solution as prepared above and 5 μl of a 100 mM CaCl2 (calcium chloride) solution. The mixture is allowed to react at 37° C. for 15 min. To the reaction mixture, after ice-cooling, is added one drop of 1N HCl (hydrochloric acid), and the resulting mass is extracted with 2 ml of ethyl acetate. The extract is concentrated to dryness followed by addition of 100 μl of methanol for use as a test specimen.
Said specimen is injected into octadecylsilane (ODS) reverse phase high performance liquid chromatography (HPLC), eluted with methanol - acetonitrile - water - acetic acid (15 : 45 : 35 : 0.01). Peak for 5-HETE (5-(s)-hydroxy-6,8,11,14-eicosatetraenoic acid), a 5-lipoxygenase product detected in approximately 25 min. is measured. The 5-lipoxygenase-inhibiting activity is determined by decrease in the peak for said 5-lipoxygenase product.
(§1) 50% inhibitory concentration as referred to in Tables 1 and 2 means concentration of an isoprenoid derivative required for controlling the production of […] as described above to 50% by introducing said isoprenoid derivative when production of 5-HETE without isoprenoid derivative of the invention is taken as 100%.

In experiment [2] the test system is stomach lesions (ulcer index) in male Wistar rats. Description: Anti-ulcer activity (ethanol-hydrochloric acid gastric lesions). The class given is in vivo, rat (male Wistar). The note with it: 100 mg/kg, oral, 1 h before ethanol-hydrochloric acid; male Wistar rats fasted 24 h. On the procedure:
To male Wistar rats (weighing 150-200 g) fasted for 24 hours was administered orally an isoprenoid derivative of the invention. One hour later, ethanol-hydrochloric acid (containing 150 mM hydrochloric acid in 60% ethanol) was orally given in a volume of 0.5 ml/100 g bodyweight.
One hour later, the animals were sacrificed with ether. The stomach was excised and, after formalin treatment, measured for the length (mm) of lesions developed in glandular portions of the stomach. Total length of the lesions per animal was taken as ulcer index.
Percent inhibition of ulceration as referred to in the table is a value indicating the ulcer index for the rat without an isoprenoid derivative of the invention orally given minus the ulcer index for the orally administered rat divided by the ulcer index for the orally non-administered rat multiplied by 100.

Experiment [3] addresses T1, 5-lipoxygenase. Put plainly: 5-Lipoxygenase-inhibiting activity (Test Example 2, radiolabeled arachidonic acid, TLC of 5-HETE). The format is biochemical. The note with it: RBL-1 cell supernatant, pH 7.4, 37° C., 15 min, radio-TLC of 5-HETE, read-out: 50% Inhibitory concentration. The procedure:
A suspension of rat-origin basophilic leukemia cell strain RBL-1 in an Eagle basal medium (manufactured by Gbco Laboratories) containing 10 % FCS is cultivated in a 5% CO2 incubator at 37° C. The culture is then centrifuged at 4° C. to collect cells. The cells are re-suspended in a phosphate buffer solution at pH 7.4 to a cell density of 1.0 -3.0×10^7 cells/ml. The suspended cells are treated by an ultrasonic cell blender and then centrifuged at 15,000 rpm at 4° C. for 30 min. The supernant is employed as an enzyme solution of a 5-lipoxygenase. In test tubes are placed 20 μl of radiolabeled arachidonic acid (10 μl Ci/ml) and an isoprenoid derivative of the invention to be tested. To each of the test tubes are added 0.40 ml of phosphate buffer, 0.10 ml of the enzyme solution as prepared above and […] of a 100 mM CaCl2 (calcium chloride). The mixture is allowed to react at 37° C. for 15 min. To the reaction mixture, after ice-cooling, is added one drop of 1N HCl (hydrochloric acid), and the resulting mass is extracted with 2 ml of ethyl acetate. The extract is concentrated, and the concentrate is spotted and developed on a silica gel thin layer plate (Merck 60F254). Measurement of the inhibitory activity is accomplished by collecting the portion corresponding to 5-HETE (5-(s)-hydroxy-6,8,11,14-eicosatetraenoic acid), a 5-lipoxygenase product detected by a radio-thin layer chromatogram scanner (Dunnschicht-Scanner II LB2723, manufactured by Berthold) and measuring radioactivity by a liquid scintillation counter. The 5-lipoxygenase-inhibiting activity is determined by decrease in the production of said 5-lipoxygenase product.
as §1

Turning to `COc1cc(/C=C/C=C/C(=O)CCC=C(C)C)ccc1O` [Example 1, 1-(4'-hydroxy-3'-methoxyphenyl)-9-methyl-1,3,8-decatrien-5-one], in experiment [1], the IC50 was 500 nM. In experiment [2], the “Percent inhibition of ulceration” value is 79.3%.
For `COc1cc(/C=C/C=C/C(=O)CC/C=C(\C)CCC=C(C)C)ccc1O` [Example 2, 9,13-dimethyl-1-(4'-hydroxy-3'-methoxyphenyl)-1,3,8,12-tetradecatetraen-5-one] the same measures were 380 nM and 94.6%.
Taken in the same sequence, the figures for `COc1cc(/C=C/C=C/C(=O)CC/C=C(\C)CC/C=C(\C)CCC=C(C)C)ccc1O` [Example 3, 1-(4'-hydroxy-3'-methoxyphenyl)-9,13,17-trimethyl-1,3,8,12,16-octadecapentaen-5-one] were 800 nM and 85.0%.
In the case of `CC(C)=CCCC(=O)/C=C/c1ccc(O)c(O)c1` [Example 4, 1-(3',4'-dihydroxyphenyl)-7-methyl-1,6-octadien-3-one], the IC50 in experiment [1] turned out to be 80 nM.
As for `COc1cc(/C=C/C(=O)OCC=C(C)C)ccc1O` [Example 5, prenyl 4-hydroxy-3-methoxycinnamate], the IC50 in experiment [3] was 3000 nM.
On to `COc1cc(/C=C/C=C/C(=O)OCC=C(C)C)ccc1O` [Example 6, prenyl 5-(3-methoxy-4-hydroxyphenyl)-2,4-pentadienoate], for which the IC50 in experiment [3] is 400 nM.
The same measure, in the same setting: the result for `CC(C)=CCOC(=O)/C=C/C=C/c1ccc(O)c(O)c1` [Example 7, prenyl 5-(3,4-dihydroxyphenyl)-2,4-pentadienoate] reads 26 nM; that for `COc1cc(/C=C/C=C/C(=O)OC/C=C(\C)CCC=C(C)C)ccc1O` [Example 8, geranyl 5-(4-hydroxy-3-methoxyphenyl)-2,4-pentadienoate], 1200 nM; that for `CC(C)=CCC/C(C)=C/COC(=O)/C=C/C=C/c1ccc(O)c(O)c1` [Example 9, geranyl 5-(3,4-dihydroxyphenyl)-2,4-pentadienoate], 260 nM.
As for `COc1cc(/C=C/C=C/C(=O)NCC=C(C)C)ccc1O` [Example 11, 5-(4'-hydroxy-3'methoxyphenyl)pentadienoic acid prenylamide], the IC50 in experiment [3] was found to be 650 nM.
With `COc1cc(/C=C/C=C/C(=O)NC/C=C(\C)CCC=C(C)C)ccc1O` [Example 12, 5-(4'-hydroxy-3-methoxyphenyl)pentadienoic acid geranylamide], the IC50 in experiment [3] came out at 83 nM.
Same read-out and setting: the result for `COc1cc(/C=C/C=C/C(=O)NC/C=C(\C)CC/C=C(\C)CCC=C(C)C)ccc1O` [Example 13, 5-(4'-hydroxy3'-methoxyphenyl)pentadienoic acid (E,E)-farnesylamide] reads 310 nM; that for `COc1cc(/C=C/C(=O)NC/C=C(\C)CCC=C(C)C)ccc1O` [Example 14, 4-hydroxy-3-methoxycinnamic acid geranylamide], 920 nM; that for `CC(C)=CCC/C(C)=C/CNC(=O)/C=C/C=C/c1ccc(O)c(O)c1` [Example 15, 5-(3',4'-dihydroxyphenyl)pentadienoic acid geranylamide], 11 nM.
